Assay: mn = molality of the nth substance listed, in mol/kg
Conditions: 298.15 K, Ring tensiometer

CC(C)Cc1ccc(C(C)C(=O)[O-])cc1.[Na+] (stereo not drawn) [sodium ibuprofen] + O
Conditions	surface tension liquid-gas [mN/m]
m1 = 0.0022	62.35
m1 = 0.00438	60.76
m1 = 0.00873	58.91
m1 = 0.0216	54.52
m1 = 0.032	51.62
m1 = 0.0423	48.38
m1 = 0.0524	45.51
m1 = 0.0671	42.39
m1 = 0.0815	40.24
m1 = 0.1	38.27
m1 = 0.118	36.11
m1 = 0.135	34.85
m1 = 0.16	33.01
m1 = 0.183	32.02
m1 = 0.206	31.74
m1 = 0.227	31.72
m1 = 0.247	31.73
m1 = 0.267	31.72
